Legend:
[1] = target: T1, Vitamin D3 receptor (Homo sapiens) (UniProt P11473); test: Compound was tested to assess the relative affinity for the intestinal mucosal vitaminD receptor
T1 sequence (whole entry): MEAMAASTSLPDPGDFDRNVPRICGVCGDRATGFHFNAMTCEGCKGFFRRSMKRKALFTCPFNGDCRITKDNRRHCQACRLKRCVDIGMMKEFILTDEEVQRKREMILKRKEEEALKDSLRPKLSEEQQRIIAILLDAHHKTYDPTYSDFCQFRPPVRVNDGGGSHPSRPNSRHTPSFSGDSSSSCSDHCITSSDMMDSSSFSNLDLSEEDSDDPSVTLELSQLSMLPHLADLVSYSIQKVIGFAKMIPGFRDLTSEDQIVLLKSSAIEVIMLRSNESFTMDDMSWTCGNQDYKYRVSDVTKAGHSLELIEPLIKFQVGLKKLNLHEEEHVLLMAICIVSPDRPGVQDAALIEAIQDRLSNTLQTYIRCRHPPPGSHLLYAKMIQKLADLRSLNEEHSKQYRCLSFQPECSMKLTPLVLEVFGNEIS

[2] = system: HL-60; test: Compound was tested to induce differentiation of human promyeloid leukemia cells (HL-60); type: functional
[3] = system: HL-60; test: Ability to induce differentiation of human promyeloid leukemia cells (HL-60); type: functional

| SMILES | Relative affinity [1] | Relative activity [2] | Relative activity [3] |
| --- | --- | --- | --- |
| C=C1/C(=C\C=C2/CCC[C@]3(C)[C@@H]([C@H](C)CSCC(C)(C)O)CC[C@@H]23)C[C@@H](O)C[C@@H]1O | 13 | 29 | – |
| C=C1/C(=C\C=C2/CCC[C@]3(C)[C@@H]([C@H](C)COC(=O)C(C)(C)O)CC[C@@H]23)C[C@@H](O)C[C@@H]1O | 26 | 6 | – |
| C=C1/C(=C\C=C2/CCC[C@]3(C)[C@@H]([C@H](C)COCC(C)(C)O)CC[C@@H]23)C[C@@H](O)C[C@@H]1O | 2 | – | 9 |
